{"source": "patent US20030176390A1", "about": "“Methods of treating insulin resistance syndrome and diabetes” (priority 2001, published 2003)", "data": [{"compound": "OC[C@H]1O[C@@H](n2cnc3c(N[C@@H]4CCN(c5ccc(C(F)(F)F)cn5)C4)ncnc32)[C@H](O)[C@@H]1O", "note": "(hydrate or solvate) [Example 4, (2R,3R,4S,5R)-5-hydroxymethyl-2-[6-[1-(5-trifluoromethylpyridin-2-yl)-pyrrolidin-3(R)-ylamino]purin-9-yl]tetrahydrofuran-3,4-diol]", "values": [{"measurement": "melting point", "result": "166 to 170", "unit": "°C"}]}, {"compound": "OC[C@H]1O[C@@H](n2cnc3c(N[C@H]4CCN(c5ccc(Cl)cn5)C4)ncnc32)[C@H](O)[C@@H]1O", "note": "[Example 8, (2R,3R,4S,5R)-5-hydroxymethyl-2-[6-[1-(5-chloropyridin-2-yl)-pyrrolidin-3(S)-ylamino]-purin-9-yl]-tetrahydrofuran-3,4-diol]", "values": [{"measurement": "melting point", "result": "154 to 156", "unit": "°C"}]}, {"compound": "OC[C@H]1O[C@@H](n2cnc3c(N[C@H]4CCN(c5cc(C(F)(F)F)ccn5)C4)ncnc32)[C@H](O)[C@@H]1O", "note": "[Example 10, (2R,3R,4S,5R)-5-hydroxymethyl-2-[6-[1-(4-trifluoromethylpyridin-2-yl)-pyrrolidin-3(S)-ylamino]-purin-9-yl]tetrahydrofuran-3,4-diol]", "values": [{"measurement": "melting point", "result": "187 to 190", "unit": "°C"}]}, {"compound": "O=[N+]([O-])c1ccc(N2CC[C@H](Nc3ncnc4c3ncn4[C@@H]3O[C@H](CO)[C@@H](O)[C@H]3O)C2)cc1", "note": "[Example 12, (2R,3R,4S,5R)-5-hydroxymethyl-2-(6-(1-(4-nitrophenyl)-pyrrolidin-3(S)-ylamino)-purin-9-yl) tetrahydrofuran-3,4-diol]", "values": [{"measurement": "melting point", "result": "230 to 232", "unit": "°C"}]}, {"compound": "OC[C@H]1O[C@@H](n2cnc3c(NC4CCCN(c5ccc(C(F)(F)F)cn5)C4)ncnc32)[C@H](O)[C@@H]1O", "note": "(stereo partly drawn) [Example 13, (2R,3R,4S,5R)-5-hydroxymethyl-2-[6-(5′-trifluoromethyl-3,4,5,6-tetrahydro-2H-[1,2′]-bipyridinyl-3-ylamino)-purin-9-yl]tetrahydrofuran-3,4-diol]", "values": [{"measurement": "melting point", "result": "113 to 116", "unit": "°C"}]}, {"compound": "OC[C@H]1O[C@@H](n2cnc3c(N[C@H]4CCN(c5ccccn5)C4)ncnc32)[C@H](O)[C@@H]1O", "note": "[Example 15, (2R,3R,4S,5R)-5-hydroxymethyl-2-[6-(1-pyridin-2-ylpyrrolidin-3(S)-ylamino]-purin-9-yl]tetrahydrofuran-3,4-diol]", "values": [{"measurement": "melting point", "result": "193 to 195", "unit": "°C"}]}, {"compound": "OC[C@H]1O[C@@H](n2cnc3c(N[C@H]4CCN(c5ccc(Cl)cc5)C4)ncnc32)[C@H](O)[C@@H]1O", "note": "[Example 16, (2R,3R,4S,5R)-5-hydroxymethyl-2-[6-[1-(4-chlorophenyl)-pyrrolidin-3(S)-ylamino]-purin-9-yl]-tetrahydrofuran-3,4-diol]", "values": [{"measurement": "melting point", "result": "121 to 124", "unit": "°C"}]}, {"compound": "Cc1ccc(N2CC[C@H](Nc3ncnc4c3ncn4[C@@H]3O[C@H](CO)[C@@H](O)[C@H]3O)C2)nc1", "note": "[Example 17, (2R,3R,4S,5R)-5-hydroxymethyl-2-[6-[1-(5-methylpyridin-2-yl)-pyrrolidin-3(S)-ylamino]-purin-9-yl]tetrahydrofuran-3,4-diol]", "values": [{"measurement": "melting point", "result": "164 to 166", "unit": "°C"}]}, {"compound": "CSc1ccc(N2CC[C@H](Nc3ncnc4c3ncn4[C@@H]3O[C@H](CO)[C@@H](O)[C@H]3O)C2)nc1", "note": "[Example 19, (2R,3R,4S,5R)-5-hydroxymethyl-2-[6-[1-(5-methylmercaptopyridin-2-yl)-pyrrolidin-3(S)-ylamino]-purin-9-yl]tetrahydrofuran-3,4-diol]", "values": [{"measurement": "melting point", "result": "231 to 233", "unit": "°C"}]}, {"compound": "COC[C@H]1O[C@@H](n2cnc3c(N[C@H]4CCN(c5ccc(C(F)(F)F)cn5)C4)ncnc32)[C@H](O)[C@@H]1O", "note": "[Example 23, (2R,3R,4S,5R) -5-methoxymethyl-2-[6-[1-(5-trifluoromethylpyridin-2-yl)-pyrrolidin-3(S)-ylamino]-purin-9-yl]tetrahydrofuran-3,4-diol]", "values": [{"measurement": "melting point", "result": "198 to 200", "unit": "°C"}]}, {"compound": "O=[N+]([O-])c1ccc(N2CCC(Nc3ncnc4c3ncn4[C@@H]3C[C@H](CO)[C@@H](O)[C@H]3O)CC2)cc1", "note": "[Example 25, (1R,2S,3R,5R)-5-hydroxymethyl-3-[6-[1-(4-nitrophenyl)piperidin-4-ylamino]-purin-9-yl]cyclopentane-1,2-diol]", "values": [{"measurement": "melting point", "result": "126 to 128", "unit": "°C"}]}]}
